In test [1] the test system is bone marrow-derived mast cells. As to the kind of experiment: cytokine production (IL-6 and TNF-α) of mast cells, ELISA. The test is classed as cell-based. Conditions: TPEN 0, 2, 5 and 10 μM; DNP-HSA 100 ng/ml for 6 hours; FIG. 3. As to the method:
As mast cells sensitized with IgE antibody, the cells prepared in the same way as described in Example 1 were used. After sensitization, the mast cells were resuspended in Tyrode's buffer. The mast cell suspension was stimulated with an antigen (DNP-HSA) at a concentration of 100 ng/ml for 6 hours. To investigate the effect of zinc ions, a zinc ion chelator TPEN (0, 2, 5 and 10 μM) was allowed to coexist with the cells for 2 hours during sensitization and for 6 hours of the stimulation.
The concentrations of cytokines (IL-6 and TNF-α) in the supernatant were determined using ELISA (BIOSOURCE).

The test system of test [2] is bone marrow-derived mast cells. As to the kind of experiment: restoration of TPEN effect on β-hexosaminidase release by enforced introduction of zinc ion. Particulars: TPEN 10 μM; 1 μM pyrithione and zinc ions during DNP-HSA stimulation; FIG. 2. The format is cell-based. Here is the method:
As mast cells sensitized with IgE antibody, the cells prepared in the same way as in Example 1 were used. After sensitization, the mast cells were resuspended in Tyrode's buffer. A zinc ion chelator TPEN (10 μM) was allowed to coexist with the cells for 2 hours during the sensitization period and for 30 minutes of the stimulation. To introduce zinc ions into the cells, the cells were treated with 1 μM pyrithione (Molecular probes, p-24193) during the stimulation, and zinc ions were added at each concentration (shown in FIG. 2) to Tyrode's buffer. The activity of β-hexosaminidase was measured in the same way as in Example 1. TPEN-untreated cells were used as a control, and the extracellular release of entire β-hexosaminidase present in the cell was defined as 100%.

Test [3] concerns bone marrow-derived mast cells. As to the kind of experiment: antigen stimulation-dependent chemical mediator (β-hexosaminidase) release (degranulation) from mast cells. The test is classed as cell-based. Particulars: TPEN 0, 2, 5 and 10 μM; IgE-sensitized mast cells stimulated with DNP-HSA for 30 minutes; FIG. 1. As to the method:
The mast cells used were bone marrow-derived mast cells whose differentiation was induced by culturing bone marrow cells with interleukin-3 for 5 weeks. The obtained bone marrow-derived mast cells (1×10^7 cells) were sensitized with 1 μg/mL IgE antibody (SPE-7 clone; available from SIGMA) for 6 hours. After sensitization, the cells were resuspended in Tyrode's buffer (pH 7.4). The composition of the Tyrode's buffer is as described in Table 1.
The obtained mast cell suspension was stimulated with an antigen (DNP-HSA; dinitrophenyl conjugated Human Serum Albumin; available from SIGMA) at each concentration (shown in FIG. 1) for 30 minutes. To investigate the effect of zinc ions, a zinc ion chelator TPEN (0, 2, 5 and 10 μM) was allowed to coexist with the cells for 2 hours during the sensitization period and for 30 minutes of the stimulation. Chemical mediator β-hexosaminidase released from the mast cells was measured. The activity of β-hexosaminidase was measured with an absorption spectrometer at wavelength of 405 nm by using 4-nitrophenyl N-acetyl-β-D-glucosaminide (available from SIGMA) as a substrate. The extracellular release of entire β-hexosaminidase present in the cell was defined as 100%.

Test [4] has as its system passive cutaneous anaphylaxis. Kind of test: passive cutaneous anaphylaxis (type I allergy) model, Evans blue dye leakage. Conditions: TPEN intraperitoneally 30 minutes before DNP-BSA challenge; mouse ear; FIG. 4. The format is in vivo. Here is the method: Mouse (6 week-old female, Balb/c Ajc1, CLEA Japan) was sensitized by subcutaneously administering 0.5 μg of IgE antibody (SPE-7, SIGMA) into the ear in order to induce passive cutaneous anaphylaxis. 30 minutes later, passive cutaneous anaphylaxis was induced by intravenous injection of 250 μg of antigen DNP-BSA (COSMOBIO) and 1.25 mg of Evans blue (SIGMA) into the tail of the mouse. In order to digitalize Evans blue dye leakage, the dye was extracted from the ear of the mouse using formamide. The extracted dye was measured by absorbance at wavelength of 620 nm. The amount of dye in each experiment was calculated from the analytical curve obtained by known amounts of Evans blue.

We go through one compound from patent US20090203749A1, “AGENT FOR CONTROL OF DEGRANULATION REACTION AND CYTOKINE PRODUCTION” (RIKEN, priority 2005, published 2009).

Molecules are shown by their SMILES.

Consider `c1ccc(CN(CCN(Cc2ccccn2)Cc2ccccn2)Cc2ccccn2)nc1` [TPEN, N,N,N′,N′-tetrakis(2-pyridylmethyl)ethylenediamine], for which the “cytokine production (IL-6 and TNF-α in supernatant)” value in test [1] was “dose dependent suppression”. In addition, the “suppressive effect on the chemical mediator release after addition of zinc ions” value in test [2] is listed as “restored by the addition of the zinc ions”. The “chemical mediator (β-hexosaminidase) release” value in test [3] is “concentration-dependent suppressive effect”. For the same compound, the “dye leakage of Evans blue” value in test [4] is given as “suppressed dose-dependently”.
